In ChEMBL document CHEMBL4229418, “Design, synthesis and pharmacology of aortic-selective acyl-CoA: Cholesterol O-acyltransferase (ACAT/SOAT) inhibitors” (Bioorg Med Chem, 2018):
In brackets after ≈: the same amount, converted by molar mass.

Assays:
[1] = Toxicity in rat measured over 2 weeks; format: organism-based; conditions: in vivo
[2] = AUC (0 to 8 hrs) in non-fasted Sprague-Dawley rat at 30 mg/kg, po by LC-MS/MS analysis; format: ADME, organism-based; design: dose 30 mg/kg, time < 8 hr, route oral; conditions: in vivo
Hamster [3] = experiment: Toxicity in Bio F1B hamster model of diet-induced atherosclerosis assessed as plasma total cholesterol level at 3 mg/kg/day added to chow pellets (reference value: 2160.1 mg/dl); format: organism-based; conditions: cricetinae, in vivo
[4] = Cmax in non-fasted Sprague-Dawley rat at 30 mg/kg, po by LC-MS/MS analysis; format: ADME, organism-based; design: dose 30 mg/kg, route oral; conditions: in vivo
Hamster [5] = experiment: Antiatherosclerotic activity in Bio F1B hamster model of diet-induced atherosclerosis assessed as plasma cholesterol ester level at 10 mg/kg/day added to chow pellets (reference value: 1379.3 mg/dl); format: functional, Cricetinae
[6] = Solubility of the compound in pH 1.2 solution; format: physicochemical; conditions: buffer
Hamster [7] = experiment: Antiatherosclerotic activity in Bio F1B hamster model of diet-induced atherosclerosis assessed as intestinal cholesterol ester level at 10 mg/kg/day added to chow pellets (reference value: 1.09 mg/dl); format: functional, Cricetinae
Hamster [8] = experiment: Antiatherosclerotic activity in Bio F1B hamster model of diet-induced atherosclerosis assessed as reduction in lipid accumulation areas in aortic arch at 30 mg/kg/day added to chow pellets by oil red O staining based assay relative to control; format: functional; conditions: Cricetinae
Hamster [9] = experiment: Effect on lipid composition in Bio F1B hamster model of diet-induced atherosclerosis assessed as intestine total cholesterol level at 3 mg/kg/day added to chow pellets (reference value: 4.51 mg/dl); format: functional, Cricetinae
Hamster [10] = experiment: Toxicity in Bio F1B hamster model of diet-induced atherosclerosis assessed as plasma total cholesterol level at 1 mg/kg/day added to chow pellets (reference value: 2160.1 mg/dl); format: organism-based; conditions: cricetinae, in vivo
Hamster [11] = experiment: Effect on lipid composition in Bio F1B hamster model of diet-induced atherosclerosis assessed as liver total cholesterol level at 3 mg/kg/day added to chow pellets (reference value: 31.99 mg/dl); format: functional, Cricetinae
Hamster [12] = experiment: Antiatherosclerotic activity in Bio F1B hamster model of diet-induced atherosclerosis assessed as adrenal cholesterol ester level at 3 mg/kg/day added to chow pellets (reference value: 5.88 mg/dl); format: functional, Cricetinae
Hamster [13] = experiment: Toxicity in Bio F1B hamster model of diet-induced atherosclerosis assessed as adrenal free cholesterol level at 1 mg/kg/day added to chow pellets (reference value: 4.65 mg/dl); format: organism-based; conditions: cricetinae, in vivo
Hamster [14] = experiment: Antiatherosclerotic activity in Bio F1B hamster model of diet-induced atherosclerosis assessed as plasma free cholesterol level at 3 mg/kg/day added to chow pellets (reference value: 780.8 mg/dl); format: functional, Cricetinae
Hamster [15] = experiment: Effect on lipid composition in Bio F1B hamster model of diet-induced atherosclerosis assessed as liver total cholesterol level at 1 mg/kg/day added to chow pellets (reference value: 31.99 mg/dl); format: functional, Cricetinae
Hamster [16] = experiment: Effect on lipid composition in Bio F1B hamster model of diet-induced atherosclerosis assessed as adrenal total cholesterol level at 3 mg/kg/day added to chow pellets (reference value: 10.54 mg/dl); format: functional, Cricetinae
Hamster [17] = experiment: Antiatherosclerotic activity in Bio F1B hamster model of diet-induced atherosclerosis assessed as plasma free cholesterol level at 30 mg/kg/day added to chow pellets (reference value: 780.8 mg/dl); format: functional, Cricetinae
Hamster [18] = experiment: Antiatherosclerotic activity in Bio F1B hamster model of diet-induced atherosclerosis assessed as intestinal free cholesterol level at 30 mg/kg/day added to chow pellets (reference value: 3.41 mg/dl); format: functional, Cricetinae
Hamster [19] = experiment: Antiatherosclerotic activity in Bio F1B hamster model of diet-induced atherosclerosis assessed as reduction in lipid accumulation areas in aortic arch at 3 mg/kg/day added to chow pellets by oil red O staining based assay relative to control; format: functional; conditions: Cricetinae
Canis familiaris = experiment: Toxicity in dog assessed as induction of necrosis in adrenal reticular zona cells at 100 mg/kg measured over 2 weeks; format: organism-based, Canis lupus familiaris; conditions: in vivo, 336 h
Hamster [20] = experiment: Antiatherosclerotic activity in Bio F1B hamster model of diet-induced atherosclerosis assessed as intestinal cholesterol ester level at 3 mg/kg/day added to chow pellets (reference value: 1.09 mg/dl); format: functional, Cricetinae
Hamster [21] = experiment: Effect on lipid composition in Bio F1B hamster model of diet-induced atherosclerosis assessed as intestine total cholesterol level at 30 mg/kg/day added to chow pellets (reference value: 4.51 mg/dl); format: functional, Cricetinae
Hamster [22] = experiment: Antiatherosclerotic activity in Bio F1B hamster model of diet-induced atherosclerosis assessed as intestinal free cholesterol level at 3 mg/kg/day added to chow pellets (reference value: 3.41 mg/dl); format: functional, Cricetinae
Hamster [23] = experiment: Antiatherosclerotic activity in Bio F1B hamster model of diet-induced atherosclerosis assessed as reduction in lipid accumulation areas in aortic arch at 10 mg/kg/day added to chow pellets by oil red O staining based assay relative to control; format: functional; conditions: Cricetinae
Hamster [24] = experiment: Effect on lipid composition in Bio F1B hamster model of diet-induced atherosclerosis assessed as adrenal total cholesterol level at 30 mg/kg/day added to chow pellets (reference value: 10.54 mg/dl); format: functional, Cricetinae
Hamster [25] = experiment: Antiatherosclerotic activity in Bio F1B hamster model of diet-induced atherosclerosis assessed as plasma cholesterol ester level at 30 mg/kg/day added to chow pellets (reference value: 1379.3 mg/dl); format: functional, Cricetinae
Hamster [26] = experiment: Effect on lipid composition in Bio F1B hamster model of diet-induced atherosclerosis assessed as liver total cholesterol level at 10 mg/kg/day added to chow pellets (reference value: 31.99 mg/dl); format: functional, Cricetinae
Hamster [27] = experiment: Antiatherosclerotic activity in Bio F1B hamster model of diet-induced atherosclerosis assessed as liver free cholesterol level at 10 mg/kg/day added to chow pellets (reference value: 7.94 mg/dl); format: functional, Cricetinae
Hamster [28] = experiment: Antiatherosclerotic activity in Bio F1B hamster model of diet-induced atherosclerosis assessed as liver cholesterol ester level at 10 mg/kg/day added to chow pellets (reference value: 24.04 mg/dl); format: functional, Cricetinae

## CC(C)c1cccc(C(C)C)c1NC(=O)CCCCCCCCSc1nc2ccccc2o1
[1]
  NOAEL at 336 h: 30 mg/kg
[2]
  AUC(0-t) at 8 h: 358 ng·h/mL
Hamster [3]
  Activity: 2241 mg/dL
[4]
  Cmax: 107 ng/mL
Hamster [5]
  Activity: 799.7 mg/dL
[6]
  solubility: 0.03 µg/mL (≈ 0.0643 µM)
Hamster [7]
  Activity: 0.31 mg/dL
Hamster [8]
  inhibition in vivo at 30 mg/kg/day: 7%
Hamster [9]
  Activity: 4.12 mg/dL
Hamster [10]
  Activity: 2340.8 mg/dL
Hamster [11]
  Activity: 23.62 mg/dL
Hamster [12]
  Activity: 6.02 mg/dL
Hamster [13]
  Activity: 4.41 mg/dL
Hamster [14]
  Activity: 801.5 mg/dL
Hamster [15]
  Activity: 30.75 mg/dL
Hamster [16]
  Activity: 10.07 mg/dL
Hamster [17]
  Activity: 217.2 mg/dL
Hamster [18]
  Activity: 4.62 mg/dL
Hamster [19]
  inhibition in vivo at 3 mg/kg/day: 69%
Canis familiaris
  Activity: Toxic
Hamster [20]
  Activity: 0.94 mg/dL
Hamster [21]
  Activity: 4.81 mg/dL
Hamster [22]
  Activity: 3.18 mg/dL
Hamster [23]
  inhibition in vivo at 10 mg/kg/day: 42%
Hamster [24]
  Activity: 3.47 mg/dL
Hamster [25]
  Activity: 259 mg/dL
Hamster [26]
  Activity: 11.52 mg/dL
Hamster [27]
  Activity: 3.87 mg/dL
Hamster [28]
  Activity: 7.65 mg/dL
